# Laboratory results as given in patent US12590099B2, “Inhibitors of histone deacetylase useful for the treatment or prevention of HIV infection” (Merck Sharp & Dohme LLC, priority 2018, dated 2026).
# Read-outs that look alike come from different tables or passages of the source.
# Tested on: KARN cells (Jurkat 2C4)
# Assay: cells
# Format: cell-based
# Details: Homo sapiens, Jurkat
# Outline: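 Jurkat 2C4 (KARN) cells dosed with test compounds up to 40 μM final, 0.4% DMSO, overnight at 5% CO2; luciferase read by Steady-Glo luminescence after 10 min at room temperature. DMSO set as 0% and 2 μM SAHA as 100% induction; 4-parameter fit of percent activation.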
# [1] = read-out: Karn EC50 (nM) 0.1% NHS, 0.1% normal human serum
# [2] = read-out: Karn EC50 (nM) 5% NHS, 5% normal human serum
SMILES,EC50 [1],EC50 [2]
CCC(=O)CCCCC[C@H](NC(=O)[C@H]1CC12CCN(C)CC2)c1ncc(-c2ccc3nc(CC)sc3c2)[nH]1 [Compound 149],92 nM,73 nM
CCC(=O)CCCCC[C@H](NC(=O)[C@H]1CC12CCN(CC)CC2)c1ncc(-c2ccc3c(=O)n(C4CC4)ccc3c2)[nH]1 [Compound 150],114 nM,135 nM
CCC(=O)CCCCC[C@H](NC(=O)[C@H]1CC12CCN(CC)CC2)c1ncc(-c2ccc3c(=O)n(C4CC4)ccc3c2)o1 [Compound 153],452 nM,447 nM
CCC(=O)CCCCC[C@H](NC(=O)C1=NOC2(CCN(C)CC2)C1)c1ncc(-c2ccc3nn(C)cc3c2)[nH]1 [Compound 154],518 nM,476 nM
CCC(=O)CCCCC[C@H](NC(=O)CN1CCC2(CC1)CC2)c1ncc(-c2ccc3nn(C)cc3c2)[nH]1 [Compound 155],354 nM,398 nM
CCC(=O)CCCCC[C@H](NC(=O)C1CCC2(CC1)CN(C)C2)c1ncc(-c2ccc3nn(C)cc3c2)[nH]1 [Compound 156],1360 nM,1360 nM
CCC(=O)CCCCC[C@H](NC(=O)C1(CC(C)C)CC2(CN(C)C2)C1)c1ncc(-c2ccc3nc(C)ccc3c2)[nH]1 [Compound 157],451 nM,557 nM
CCC(=O)CCCCC[C@H](NC(=O)[C@H]1CC12CCN(CC)CC2)c1ncc(-c2ccc3c(cnn3C3CC3)c2)[nH]1 [Compound 159],73 nM,57 nM
CCC(=O)CCCCC[C@H](NC(=O)[C@H]1CC12CCN(C)CC2)c1ncc(-c2ccc3nc(C4CC4)oc3c2)[nH]1 [Compound 160],200 nM,234 nM
CCC(=O)CCCCC[C@H](NC(=O)[C@H]1CC12CCN(CC)CC2)c1ncc(-c2ccc(-c3cnc(C4CC4)nc3)cc2)o1 [Compound 161],1370 nM,1460 nM
CCC(=O)CCCCC[C@H](NC(=O)[C@H]1CC12CCN(CC)CC2)c1ncc(-c2ccc3c(=O)n(CC)ccc3c2)o1 [Compound 162],257 nM,305 nM
CCN1CCC2(CC1)C[C@@H]2C(=O)N[C@@H](CCCCCC(=O)CC1CC1)c1ncc(-c2cc3ccc(C)nc3cc2OC)[nH]1 [Compound 165],140 nM,385 nM
CCN1CCC2(CC1)C[C@@H]2C(=O)N[C@@H](CCCCCC(=O)CC1CC1)c1ncc(-c2cc3ccc(C)nc3cc2OC)o1 [Compound 167],122 nM,253 nM
CCC(=O)CCCCC[C@H](NC(=O)[C@H]1CC12CCN(C)CC2)c1ncc(-c2cc(OC)c3ccccc3n2)[nH]1 [Compound 170],436 nM,1160 nM
CCC(=O)CCCCC[C@H](NC(=O)[C@H]1CC12CCN(C)CC2)c1ncc(-c2ccc3nc(C)cc(Cl)c3c2)[nH]1 [Compound 174],67 nM,82 nM
CCC(=O)CCCCC[C@H](N)c1ncc(-c2ccc3nc(C)ccc3c2)[nH]1 [Compound 178],6790 nM,10400 nM
"C=CCN1CCC2(CC1)C[C@@H]2C(=O)N[C@@H](CCCCCC(=O)CC)c1ncc(-c2ccc3c(c2)C2CCC3N2CC=C)[nH]1 (stereo partly drawn) [Compound 179, (1S)—N-{(1S)-7-oxo-1-[5-(9-prop-2-en-1-yl-1,2,3,4-tetrahydro-1,4-epiminonaphthalen-6-yl)-1H-imidazol-2-yl]nonyl}-6-prop-2-en-1-yl-6-azaspiro[2.5]octane-1-carboxamide]",2410 nM,2390 nM
"C=CCN1CCC2(CC1)C[C@@H]2C(=O)N[C@@H](CCCCCC(=O)CC)c1ncc(-c2cccc3c2C2CCC3N2CC=C)[nH]1 (stereo partly drawn) [Compound 180, (1S)—N-{(1S)-7-oxo-1-[5-(9-prop-2-en-1-yl-1,2,3,4-tetrahydro-1,4-epiminonaphthalen-5-yl)-1H-imidazol-2-yl]nonyl}-6-prop-2-en-1-yl-6-azaspiro[2.5]octane-1-carboxamide]",371 nM,666 nM
CCN1CCC2(CC1)C[C@@H]2C(=O)N[C@@H](CCCCCC(=O)CC1CCC1)c1ncc(-c2cc3ccc(C)nc3cc2OC)o1 [Compound 184],1630 nM,2760 nM

SMILES,EC50 [1],EC50 [2]
COc1cc2nc(C)ccc2cc1-c1cnc([C@H](CCCCCC(=O)CC2CCC2)NC(=O)[C@H]2CC23CCN(C)CC3)o1 [Compound 185],1330 nM,2960 nM
CCC(=O)CCCCC[C@H](NC(=O)[C@H]1CC12CCN(CC)CC2)c1ncc(-c2cc3nn(C)cc3cc2OC)o1 [Compound 189],282 nM,300 nM
CCC(=O)CCCCC[C@H](NC(=O)[C@H]1CC12CCN(C)CC2)c1nnc(-c2cc3ccc(C)nc3cc2OC)o1 [Compound 191],366 nM,343 nM
CCC(=O)CCCCC[C@H](NC(=O)C1=NOC2(CCN(C)CC2)C1)c1ncc(-c2cc3ccc(=O)n(C)c3cc2OC)o1 [Compound 193],284 nM,297 nM
"COc1cc2nc(C)ccc2cc1-c1cnc([C@H](CCCCCC(=O)CC2CC2)NC(=O)[C@H]2CC23CCN(C)CC3)o1 [Compound 195, (1S)—N-{(1S)-8-cyclopropyl-1-[5-(7-methoxy-2-methylquinolin-6-yl)-1,3-oxazol-2-yl]-7-oxooctyl}-6-methyl-6-azaspiro[2.5]octane-1-carboxamide]",163 nM,216 nM
CCC(=O)CCCCC[C@H](NC(=O)C1=NOC2(CCN(C)CC2)C1)c1ncc(-c2cc3ccc(C)nc3cc2OC)o1 [Compound 196],154 nM,162 nM
CCC(=O)CCCCC[C@H](NC(=O)[C@H]1CC12CCN(C)CC2)c1ncc(-c2cc3ccc(=O)n(C)c3cc2OC)o1 [Compound 198],147 nM,176 nM
CCC(=O)CCCCC[C@H](NC(=O)[C@H]1CC12CCN(CC1CC1)CC2)c1ncc(-c2cc3ccc(=O)n(C)c3cc2OC)o1 [Compound 199],62 nM,83 nM
CCN1CCC2(CC1)C[C@@H]2C(=O)N[C@@H](CCCCCC(=O)CC1CC1)c1ncc(-c2ccc(F)cc2)[nH]1 [Compound 201],359 nM,403 nM
CCC(=O)CCCCC[C@H](NC(=O)C1=NOC2(CCN(CC)CC2)C1)c1ncc(-c2cc3ccc(C)nc3cc2OC)o1 [Compound 204],165 nM,152 nM
CCC(=O)CCCCC[C@H](NC(=O)C1=NOC2(CCN(CC)CC2)C1)c1ncc(-c2cc3ccc(C)nc3cc2OC)[nH]1 [Compound 207],55 nM,58 nM
"CCC(=O)CCCCC[C@H](N)c1ncc(-c2cc3ccc(C)nc3cc2OC)[nH]1 [Compound 209, (S)-9-amino-9-(5-(7-methoxy-2-methylquinolin-6-yl)-1H-imidazol-2-yl)nonan-3-one]",1440 nM,4950 nM
"CCC(=O)CCCCC[C@H](NC(=O)[C@H]1CC12CCN(CC)CC2)c1nc(-c2cc3ccc(C)nc3cc2OC)cn1COC(=O)C(C)(C)C [Compound 215, {2-[(1S)-1-({[(1S)-6-ethyl-6-azaspiro[2.5]oct-1-yl]carbonyl}amino)-7-oxononyl]-4-(7-methoxy-2-methylquinolin-6-yl)-1H-imidazol-1-yl}methyl 2,2-dimethylpropanoate]",93 nM,93 nM
CCC(=O)CCCCC[C@H](NC(=O)C1=NOC2(CCN(C)CC2)C1)c1ncc(-c2cc3ccncc3nc2OC)o1 [Compound 216],194 nM,278 nM
"CCC(=O)CCCCC[C@H](NCCN(C)C)c1ncc(-c2cc3ccc(C)nc3cc2OC)[nH]1 [Compound 217, (9S)-9-{[2-(dimethylamino)ethyl]amino}-9-[5-(7-methoxy-2-methylquinolin-6-yl)-1H-imidazol-2-yl]nonan-3-one]",576 nM,518 nM
CCC(=O)CCCCC[C@H](NC(=O)C1=NOC2(CCN(CC3CC3)CC2)C1)c1ncc(-c2cc3ccc(C)nc3cc2OC)[nH]1 [Compound 219],78 nM,101 nM
CCC(=O)CCCCC[C@H](NC(=O)[C@H]1CC12CCN(C)CC2)c1ncc(-c2cc(OC)ncc2F)o1 [Compound 220],3810 nM,3930 nM
CCC(=O)CCCCC[C@H](NC(=O)C1=NOC2(CCN(C)CC2)C1)c1ncc(-c2cc3ccc(C)nc3cc2F)o1 [Compound 221],344 nM,581 nM
